Measurements published in US7579371B2, “Methods of using [3.2.0] heterocyclic compounds and analogs thereof” (Nereus Pharmaceuticals, Inc., priority 2004, dated 2009).
Values joined by “and” are separate entries in the source; they are usually repeats but may differ in a detail not shown here. Identical values can stand only once.

How the values were obtained:
[1] = target: T1, human erythrocyte proteasomes, Caspase-like activity (Homo sapiens, UniProt P28072); assay: Caspase-like activity of human erythrocyte proteasomes; type: biochemical
T1 construct: from tissue; host or cells: human erythrocytes

[2] = tested on: MES-SA/Dx5; assay: Cell growth inhibition assay (resazurin, 48 h)
Method: (§1) Concentrations ranging from 6.32 μM to 2 nM were tested for II-2 and II-4.
The multidrug resistant MES-SA/Dx5 tumor cell line was derived from the human uterine sarcoma MES-SA tumor cell line and expresses elevated P-Glycoprotein (P-gp), an ATP dependent efflux pump.

[3] = tested on: HL-60/MX2; assay: Cell growth inhibition assay (resazurin, 48 h); conditions: for EC50: HL-60/MX2, 48 h
Method: The DNA binding agent Mitoxantrone was included as a control, as HL-60/MX2 cells are reported to be resistant to this chemotherapeutic agent (Harker W. G. et al. 1989).
as §1
HL-60/MX2 is a multidrug resistant tumor cell line derived from the human promyelocytic leukemia cell line, HL-60 and expresses reduced topoisomerase II activity. […] Mitoxantrone, the topoisomerase II targeting agent was included as a control.

[4] = tested on: PC-3; assay: Cell growth inhibition assay (resazurin, 48 h)
[5] = tested on: CCD-27sk; assay: Cytotoxic activity, 48 h, normal human fibroblasts; type: cell-based
[6] = tested on: MES-SA; assay: Cell growth inhibition assay (resazurin, 48 h); type: cell-based, human
[7] = Maximum tolerated dose determination in female BALB/c mice; type: in vivo, mouse
Excerpt: In vivo studies were designed to determine the MTD of Salinosporamide A when administered intravenously to female BALB/c mice.
Animals were observed daily for clinical signs and were weighed individually twice weekly until the end of the experiment (maximum of 14 days after the last day of dosing).

[8] = LogD7.4 determination; conditions: pH 7.4
Excerpt: These studies consisted of solubility assessment, LogD^7.4 determination and a preliminary screen to detect cytochrome P450 enzyme inhibition.

[9] = tested on: PARP; assay: PARP cleavage in Jurkat cells (western blot); type: cell-based, human; conditions: 100 nM Salinosporamide A or 350 nM Staurosporine
[10] = tested on: DU 145; assay: Cell growth inhibition assay (resazurin, 48 h); type: cell-based, human
[11] = tested on: NF-κB; assay: NF-κB-mediated luciferase reporter gene assay, HEK293 NF-κB/Luc cells, TNF-α stimulation; type: cell-based; conditions: Homo sapiens, HEK293, read-out: EC50, NF-κB-mediated luciferase activity, 1 hr pretreatment, 6 hours TNF-α
Method: The HEK293 NF-κB/luciferase reporter cell line is a derivative of the human embryonic kidney cell line (ATCC; CRL-1573) and carries a luciferase reporter gene under the regulation of 5× NF-κB binding sites. […] When performing the luciferase assay, the DMEM basal medium was replaced with phenol-red free DMEM basal medium and the G418 was omitted.
For NF-κB-mediated luciferase assays, HEK293 NF-κB/luciferase cells were seeded at 1.5×10^4 cells/well in 90 μl phenol-red free DMEM complete medium into Corning 3917 white opaque-bottom tissue culture plates. For Formulae II-2, II-4, II-5A and II-18, a 400 μM starting dilution was made in 100% DMSO and this dilution was used to generate an 8-point half log dilution series. […] For formula II-20, a 2.5 mM or 8 mM starting dilution was made in 100% DMSO and the final test concentrations ranged from 6.3 μM to 2.0 nM or 20 μM to 6.3 nM respectively. The plates were returned to the incubator for 1 hour. After 1 hr pretreatment, 10 μl of a 50 ng/ml TNF-α solution, prepared in the phenol-red free DMEM medium was added, and the plates were incubated for an additional 6 hours.
At the end of the TNF-α stimulation, 100 μl of Steady Lite HTS luciferase reagent (Packard Bioscience) was added to each well and the plates were left undisturbed for 10 min at room temperature before measuring the luciferase activity. The relative luciferase units (RLU) were measured by using a Fusion microplate fluorometer (Packard Bioscience).
NF-κB inducible luciferase activity was measured at 6 hours.

[12] = target: T2, proteasome chymotrypsin-like activity in packed whole blood lysate (Mus musculus, UniProt O55234); assay: Proteasome activity in packed whole blood lysate (PWBL) of treated mice; type: in vivo; conditions: 90 minutes
T2 construct: The supernatant (Packed Whole Blood Lysate, PWBL) was transferred to a fresh tube; from tissue; host or cells: packed whole blood cells of Swiss-Webster mice (lysate)
Method: In brief, frozen whole blood samples were thawed on ice for one hour, and resuspended in 700 μL of ice cold 5 mM EDTA, pH 8.0 in order to lyse the cells by hypotonic shock. This represents approximately 2-3 times the volume of the packed whole blood cells. Lysis was allowed to proceed for one hour, and the cellular debris was removed by centrifugation at 14,000×g for 10 minutes. The supernatant (Packed Whole Blood Lysate, PWBL) was transferred to a fresh tube, and the pellet discarded. Protein concentration of the PWBL was determined by BCA assay (Pierce) using BSA as a standard.
Proteasome activity was determined by measuring the hydrolysis of a fluorogenic substrate specific for the chymotrypsin-like activity of proteasomes (suc-LLVY-AMC, Bachem Cat. I-1395). […] Hydrolysis of the substrate results in the release of free AMC, which was measured fluorometrically by using λex=390 nm and λem=460 nm. The rate of hydrolysis in this system is linear for at least one hour. The hydrolysis rate of each sample is then normalized to relative fluorescent units per milligram of protein (RFU/mg).
The vehicle control consisted of 2% DMSO in 10% solutol. […] Packed whole blood cells were collected by centrifugation, washed with PBS, and re-centrifuged. All samples were stored at −80° C. prior to the evaluation of the proteasome activity. […]

[13] = tested on: U266; assay: Cell growth inhibition assay (resazurin, 48 h); type: cell-based; conditions: Homo sapiens, U-266, 48 h, U266, 48 h
[14] = tested on: Jurkat cells; assay: Cytotoxicity against Jurkat cells; type: cell-based, human

T2 sequence (O55234 60-264): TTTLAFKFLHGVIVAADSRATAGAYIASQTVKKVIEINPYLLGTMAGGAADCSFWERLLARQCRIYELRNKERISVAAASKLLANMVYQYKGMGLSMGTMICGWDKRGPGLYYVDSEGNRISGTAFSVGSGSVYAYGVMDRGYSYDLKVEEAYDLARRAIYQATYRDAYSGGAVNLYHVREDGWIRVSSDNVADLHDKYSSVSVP

**Q.** Which EC50 [1] does the source give for C[C@@]12OC(=O)[C@]1([C@@H](O)[C@@H]1C=CCCC1)NC(=O)[C@@H]2CCCl [Formula II-16, Salinosporamide A] here?
**A.** ~390 nM

**Q.** What about the EC50 ([2]; Homo sapiens, MES-SA/Dx5, 48 h) of the same molecule?
**A.** 23 ± 1 nM

**Q.** What about the “% cytotoxicity” value ([2]; MES-SA/Dx5) of the same molecule?
**A.** 92 ± 2%

**Q.** And the “% cytotoxicity” value ([3]; HL-60/MX2)?
**A.** 84% and 89%

**Q.** And the EC50 [3]?
**A.** 25 nM

**Q.** And the EC50 ([3]; Homo sapiens, HL60/MX2, 48 h)?
**A.** 28 nM

**Q.** What about the “% cytotoxicity” value ([4]; PC-3) of the same molecule?
**A.** 88% and 89%

**Q.** And the EC50 ([4]; PC-3, 48 h)?
**A.** 64 ± 26 nM

**Q.** What about the EC50 [5] of the same molecule?
**A.** 196 nM

**Q.** What about the “% cytotoxicity” value [6] of the same molecule?
**A.** 94 ± 1%

**Q.** And the EC50 ([6]; Homo sapiens, 48 h)?
**A.** 20 ± 5 nM

**Q.** And the “well tolerated dose, daily for five consecutive days” value ([7]; i.v. qdx5, female BALB/c mice)?
**A.** up to 0.1 mg/kg

**Q.** And the “tolerated single intravenous dose” value ([7]; qdx1, female BALB/c mice)?
**A.** up to 0.25 mg/kg

**Q.** And the LogD7.4 [8]?
**A.** 2.4

**Q.** And the “cleavage of PARP” value [9]?
**A.** cleavage of PARP within the Jurkat cells in a time-dependent fashion

**Q.** What about the “% cytotoxicity” value ([10]; DU 145) of the same molecule?
**A.** 75 ± 4%

**Q.** What about the EC50 ([10]; Homo sapiens, DU 145, 48 h) of the same molecule?
**A.** 37 ± 10 nM

**Q.** And the EC50 [11]?
**A.** ~7 nM

**Q.** What about the “proteasomal activity in PWBL after oral administration” value [12] of the same molecule?
**A.** active upon oral administration

**Q.** What about the EC50 [13] of the same molecule?
**A.** 4.7 ± 0.7 nM

**Q.** And the “% max cell kill” value [14]?
**A.** 97%

**Q.** And the EC50 ([14]; Homo sapiens)?
**A.** 10 nM
